Experimental data reported in patent US20240101576A1, “HETEROCYCLIC INHIBITORS OF EGFR AND/OR HER2, FOR USE IN THE TREATMENT OF CANCER” (Scorpion Therapeutics, Inc., priority 2020, published 2024).

Tests used:
Assay type in all cases: cell-based
EGFR WT (Ba/F3 cells) = molecular target: T1, EGFR WT (Ba/F3 cells) (Homo sapiens, UniProt P00533); experiment: Inhibitor activity on EGFR-dependent cell growth (CellTiter-Glo, 72 h), Ba/F3 EGFR WT; details: read-out: BaF3 WT IC50
T1 construct: expressed in transfected cells; host or cells: Ba/F3 (murine pro-B cells), retroviral transduction, puromycin selection, maintained with EGF
Summary of the method: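 This growth assay used Ba/F3 cells that depend on wild-type EGFR and are kept in EGF without IL3. Compounds were made up as 10 mM DMSO stocks and diluted 3-fold over 10 points. 120 nL went onto 600 cells/well. After 72 hours, 40 μL CellTiter-Glo was added and luminescence read on EnVision after 30 min.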

[1] = molecular target: T2, EGFR exon 20 ASV Ins V769_D770 (Ba/F3 cells) (Homo sapiens, UniProt P00533, INS769ASV); experiment: Inhibitor activity on EGFR-dependent cell growth (CellTiter-Glo, 72 h), Ba/F3 EGFR exon 20 ASV Ins; details: read-out: BaF3 ASV IC50
T2 construct: expressed in transfected cells; host or cells: Ba/F3 (murine pro-B cells), retroviral transduction, puromycin selection, IL3-independent pool
Summary of the method: (§1)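 IC50s derive from a sigmoidal dose–response fit of CellTiter-Glo signal. The signal was normalised between […]-treated cells and cell-free medium. Ba/F3 mutant-EGFR cells, seeded at 400–800/well depending on the line, had 72 h of exposure to a 10-point, 3-fold compound series.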

[2] = molecular target: T3, EGFR exon 19del (Ba/F3 cells) (Homo sapiens, UniProt P00533); experiment: Inhibitor activity on EGFR phosphorylation (pEGFR AlphaLISA, 2 h), Ba/F3 EGFR exon 19del; details: read-out: Del19 IC50 (pEGFR)
Source text: (§2) Example B. Inhibitor Activity on EGFR phosphorylation (pEGFR)
(§3) EGFR mutant Ba/F3 cells were generated by transduction with retrovirus containing vectors expressing EGFR L858R, EGFR exon 19del, EGFR L858R/C797S, EGFR exon 20 NPG Ins D770_N771, EGFR exon 20 ASV Ins V769_D770, or EGFR exon 20 SVD Ins D770_N771 genes along with a puromycin selection marker. Transduced cells are selected with puromycin for 7 days and are then be transferred into culture media without Interleukin 3 (IL3). Surviving cells are confirmed to express EGFR by Western blot and maintained as a pool. CUTO14 cells were obtained from Dr. Robert C. Doebele at the University of Colorado. The IC50 date are included in Table 6 and Table 7.
(§4) 1.1 Cells are harvested from flask into cell culture medium and the cell number counted.
(§5) 1.2 Cells are diluted with culture medium to the desired density and 40 μL of cell suspension is added into each well of 384-well cell culture plate and the seeding density is 50K cells/well (Ba/F3) or 12.5K cells/well (CUTO14).
(§6) 2 Compound Preparation and Treatment
(§7) 2.1 Test compounds are dissolved to 10 mM in a DMSO stock solution. 45 μL of stock solution is transferred to a 384 polypropylene plate (pp-plate). Perform 3-fold, 10-point dilution via transferring 15 μL compound into 30 μL DMSO using a TECAN (EVO200) liquid handler.
(§8) 2.2 Spin plates at room temperature at 1,000 RPM for 1 minute.
(§9) 2.3 Transfer 5 nL of diluted compound from compound source plate into the cell plate.
(§10) 2.4 After compound treatment for 2 hours, perform pEGFR detection by AlphaLISA for compound treatment plates as described in “Detection” section.
(§11) 3 Detection by pEGFR AlphaLISA (Perkin-Elmer)
(§12) 3.1 Plates are removed from incubators and equilibrated at room temperature for 10 minutes, and media was removed
(§13) 3.2 10 μL of lysis buffer is added and plates shaken at 600 rpm for 1 hr.
(§14) 3.3 Prepare acceptor mix just before use and dispense 5 μL of acceptor mix to all the wells. Shake 350 rpm for Ihr in the dark
(§15) 3.4 Prepare donor mix under low light conditions prior to use. Dispense 5 μL of donor mix to all the wells. Mix well on the shaker, seal and wrap in aluminum foil and incubate 1.5 hrs at room temperature in the dark
(§16) 3.5 Transfer 18.5 μL mixture to OptiPlate 384, and read using an Envision. The IC50 date were included in Table 6 and Table 7.

EGFR L858R (Ba/F3 cells) [3] = molecular target: T4, EGFR L858R (Ba/F3 cells) (Homo sapiens, UniProt P00533, L858R); experiment: Inhibitor activity on EGFR phosphorylation (pEGFR AlphaLISA, 2 h), Ba/F3 EGFR L858R
T4 construct: expressed in transfected cells; host or cells: Ba/F3 (murine pro-B cells), retroviral transduction, puromycin selection, IL3-independent pool
Source text: as §2, §3, §4, §5, §6, §7, §8, §9, §10, §11, §12, §13, §14, §15, §16

[4] = molecular target: T5, EGFR L858R/C797S (Ba/F3 cells) (Homo sapiens, UniProt P00533, C797S/L858R); experiment: Inhibitor activity on EGFR phosphorylation (pEGFR AlphaLISA, 2 h), Ba/F3 EGFR L858R/C797S
T5 construct: expressed in transfected cells; host or cells: Ba/F3 (murine pro-B cells), retroviral transduction, puromycin selection, IL3-independent pool
Source text: as §2, §3, §4, §5, §6, §7, §8, §9, §10, §11, §12, §13, §14, §15, §16

[5] = molecular target: T3, EGFR exon 19del (Ba/F3 cells); experiment: Inhibitor activity on EGFR-dependent cell growth (CellTiter-Glo, 72 h), Ba/F3 EGFR exon 19del; details: Ba/F3 EGFR exon 19del cell growth, read-out: BaF3 Del19 IC50
Summary of the method: (§17)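 Steps: seed Ba/F3 EGFR-mutant pools (800 cells/well FQEA and exon 19del; 600 L858R/C797S; 400 L858R). Add 120 nL of serially diluted compound and incubate 72 h. Equilibrate to room temperature, add CellTiter-Glo and read after 30 min. Fit IC50.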

EGFR L858R (Ba/F3 cells) [6] = molecular target: T4, EGFR L858R (Ba/F3 cells); experiment: Inhibitor activity on EGFR-dependent cell growth (CellTiter-Glo, 72 h), Ba/F3 EGFR L858R; details: read-out: BaF3 L858R IC50
Summary of the method: as §17

[7] = molecular target: T6, EGFR exon 20 NPG Ins D770_N771 (Ba/F3 cells) (Homo sapiens, UniProt P00533, INS770NPG); experiment: Inhibitor activity on EGFR-dependent cell growth (CellTiter-Glo, 72 h), Ba/F3 EGFR exon 20 NPG Ins; details: read-out: BaF3 NPG IC50
T6 construct: expressed in transfected cells; host or cells: Ba/F3 (murine pro-B cells), retroviral transduction, puromycin selection, IL3-independent pool
Summary of the method: as §1

[8] = molecular target: T5, EGFR L858R/C797S (Ba/F3 cells); experiment: Inhibitor activity on EGFR-dependent cell growth (CellTiter-Glo, 72 h), Ba/F3 EGFR L858R/C797S; details: read-out: BaF3 L858R/C797S IC50
Source text: Example A. Inhibitor Activity on EGFR-Dependent Cell Growth
Cell lines are generated by transducing Ba/F3 cells with retroviruses containing vectors with EGFR WT, EGFR L858R, EGFR exon 19del, EGFR L858R/C797S, EGFR exon 20 NPG Ins D770_N771, EGFR exon 20 ASV Ins V769_D770, EGFR exon 20 SVD Ins D770_N771, or EGFR exon 20 FQEA Ins A763_V764 genes and a puromycin selection marker. Transduced cells are selected with puromycin for 7 days and are then be transferred into culture media without Interleukin 3 (IL3). EGFR WT cells are maintained with supplemental EGF. Surviving cells are confirmed to express EGFR by Western blot and maintained as a pool. The IC50 date were included in Table 6 and Table 7.
as §4
1.2 Cells are diluted with culture medium to the desired density and 40 μL of cell suspension is added into each well of 384-well cell culture plate and the seeding density is 800 (FQEA, exon 19del), 600 (WT, NPG, L858R/C797S), or 400 (ASV, SVD, L858R) cells/well.
as §6, §7, §8
2.3 Transfer 120 nL of diluted compound from compound source plate into the cell plate.
2.4 After compound treatment for 72 hours, perform CTG detection for compound treatment plates as described in “Detection” section.
3.1 Plates are removed from incubators and equilibrated at room temperature for 15 minutes.
3.2 Thaw the CellTiter Glo reagents and allow to equilibrate to room temperature before the experiment.
3.3 Add 40 μL of CellTiter-Glo reagent into each well (at 1:1 to culture medium). Then place the plates at room temperature for 30 min followed by reading on EnVision.
4.1 Inhibition activity is calculated following the formula below:
% Inhibition=100×(LumHC−LumSample)/(LumHC−LumLC) • where HC is obtained from cells treated with 0.1% DMSO only; and LC is obtained from culture medium only.
4.2 2. Calculate the IC50 by fitting the Curve using Xlfit (v5.3.1.3), equation 201.
Y=Bottom+(Top−Bottom)/(1+10^((Log IC50−X)*HillSlope))

[9] = molecular target: T7, EGFR exon 20 SVD Ins D770_N771 (Ba/F3 cells) (Homo sapiens, UniProt P00533, INS770SVD); experiment: Inhibitor activity on EGFR-dependent cell growth (CellTiter-Glo, 72 h), Ba/F3 EGFR exon 20 SVD Ins; details: read-out: BaF3 SVD IC50
T7 construct: expressed in transfected cells; host or cells: Ba/F3 (murine pro-B cells), retroviral transduction, puromycin selection, IL3-independent pool
Summary of the method: as §1

[10] = molecular target: T8, EGFR exon 20 FQEA Ins A763_V764 (Ba/F3 cells) (Homo sapiens, UniProt P00533, INS763FQEA); experiment: Inhibitor activity on EGFR-dependent cell growth (CellTiter-Glo, 72 h), Ba/F3 EGFR exon 20 FQEA Ins; details: read-out: BaF3 FQEA IC50
T8 construct: expressed in transfected cells; host or cells: Ba/F3 (murine pro-B cells), retroviral transduction, puromycin selection, IL3-independent pool
Summary of the method: as §17

T3 sequence (P00533 with tags, fused parts or gaps DEL746-750): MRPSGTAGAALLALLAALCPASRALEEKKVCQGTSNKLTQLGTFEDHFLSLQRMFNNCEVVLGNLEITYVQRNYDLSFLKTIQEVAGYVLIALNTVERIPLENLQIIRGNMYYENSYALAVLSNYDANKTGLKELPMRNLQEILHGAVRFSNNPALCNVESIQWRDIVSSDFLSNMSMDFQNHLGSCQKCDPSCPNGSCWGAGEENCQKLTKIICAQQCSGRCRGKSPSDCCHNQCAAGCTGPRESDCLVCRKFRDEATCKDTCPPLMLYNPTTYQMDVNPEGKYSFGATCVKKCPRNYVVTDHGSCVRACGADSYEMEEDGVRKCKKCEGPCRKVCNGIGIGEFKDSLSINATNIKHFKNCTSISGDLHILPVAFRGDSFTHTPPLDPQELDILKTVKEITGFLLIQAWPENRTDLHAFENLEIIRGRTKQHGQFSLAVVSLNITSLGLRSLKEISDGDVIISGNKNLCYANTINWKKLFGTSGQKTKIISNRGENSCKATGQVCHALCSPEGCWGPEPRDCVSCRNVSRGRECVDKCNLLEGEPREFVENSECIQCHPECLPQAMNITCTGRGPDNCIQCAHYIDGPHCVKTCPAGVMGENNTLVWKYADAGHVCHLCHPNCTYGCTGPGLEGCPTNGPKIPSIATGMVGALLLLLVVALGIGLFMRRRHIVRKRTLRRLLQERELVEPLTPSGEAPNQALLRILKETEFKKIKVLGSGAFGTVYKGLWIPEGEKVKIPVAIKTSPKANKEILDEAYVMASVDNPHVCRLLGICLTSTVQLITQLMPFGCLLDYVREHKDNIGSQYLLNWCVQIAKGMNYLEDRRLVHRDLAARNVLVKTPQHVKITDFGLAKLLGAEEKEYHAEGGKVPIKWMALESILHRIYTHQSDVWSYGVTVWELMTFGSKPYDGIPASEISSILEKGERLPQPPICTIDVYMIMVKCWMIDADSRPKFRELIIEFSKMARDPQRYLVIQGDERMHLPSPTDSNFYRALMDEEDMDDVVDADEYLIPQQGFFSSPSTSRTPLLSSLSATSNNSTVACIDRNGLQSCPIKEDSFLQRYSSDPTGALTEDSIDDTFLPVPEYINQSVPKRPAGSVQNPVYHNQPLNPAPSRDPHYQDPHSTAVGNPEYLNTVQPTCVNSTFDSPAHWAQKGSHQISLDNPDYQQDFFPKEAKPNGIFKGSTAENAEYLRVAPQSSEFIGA
T1 sequence (P00533 25-1210): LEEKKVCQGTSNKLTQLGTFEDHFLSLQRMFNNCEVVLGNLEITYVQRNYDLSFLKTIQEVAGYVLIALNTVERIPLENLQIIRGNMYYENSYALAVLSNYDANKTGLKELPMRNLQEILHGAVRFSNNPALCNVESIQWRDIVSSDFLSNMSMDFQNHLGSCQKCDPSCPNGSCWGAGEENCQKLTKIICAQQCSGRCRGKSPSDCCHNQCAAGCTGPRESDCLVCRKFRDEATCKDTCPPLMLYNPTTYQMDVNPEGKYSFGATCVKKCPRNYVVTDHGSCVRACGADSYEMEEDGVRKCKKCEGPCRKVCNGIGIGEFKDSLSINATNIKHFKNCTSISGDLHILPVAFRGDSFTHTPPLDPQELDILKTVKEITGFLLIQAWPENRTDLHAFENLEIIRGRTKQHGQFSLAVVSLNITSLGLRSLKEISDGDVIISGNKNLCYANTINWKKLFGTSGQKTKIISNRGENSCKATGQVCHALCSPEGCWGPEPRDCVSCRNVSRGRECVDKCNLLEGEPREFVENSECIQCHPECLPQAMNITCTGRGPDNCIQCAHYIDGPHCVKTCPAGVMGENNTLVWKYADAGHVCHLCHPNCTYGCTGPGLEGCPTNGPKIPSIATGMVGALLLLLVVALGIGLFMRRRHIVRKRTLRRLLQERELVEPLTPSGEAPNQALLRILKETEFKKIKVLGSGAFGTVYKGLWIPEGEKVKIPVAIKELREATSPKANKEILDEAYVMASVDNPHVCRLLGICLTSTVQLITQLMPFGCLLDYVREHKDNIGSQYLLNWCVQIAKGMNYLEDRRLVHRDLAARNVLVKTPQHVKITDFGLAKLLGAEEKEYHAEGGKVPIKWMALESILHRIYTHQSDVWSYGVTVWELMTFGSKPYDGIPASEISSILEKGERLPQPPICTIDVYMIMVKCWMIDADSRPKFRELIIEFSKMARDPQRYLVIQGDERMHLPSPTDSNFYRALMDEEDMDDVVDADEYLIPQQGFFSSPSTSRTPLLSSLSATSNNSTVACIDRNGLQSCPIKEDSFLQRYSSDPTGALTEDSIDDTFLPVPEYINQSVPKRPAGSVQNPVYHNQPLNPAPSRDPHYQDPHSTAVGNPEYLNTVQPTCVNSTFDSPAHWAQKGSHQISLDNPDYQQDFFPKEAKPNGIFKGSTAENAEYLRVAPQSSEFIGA
T8 sequence (P00533 with tags, fused parts or gaps INS763FQEA): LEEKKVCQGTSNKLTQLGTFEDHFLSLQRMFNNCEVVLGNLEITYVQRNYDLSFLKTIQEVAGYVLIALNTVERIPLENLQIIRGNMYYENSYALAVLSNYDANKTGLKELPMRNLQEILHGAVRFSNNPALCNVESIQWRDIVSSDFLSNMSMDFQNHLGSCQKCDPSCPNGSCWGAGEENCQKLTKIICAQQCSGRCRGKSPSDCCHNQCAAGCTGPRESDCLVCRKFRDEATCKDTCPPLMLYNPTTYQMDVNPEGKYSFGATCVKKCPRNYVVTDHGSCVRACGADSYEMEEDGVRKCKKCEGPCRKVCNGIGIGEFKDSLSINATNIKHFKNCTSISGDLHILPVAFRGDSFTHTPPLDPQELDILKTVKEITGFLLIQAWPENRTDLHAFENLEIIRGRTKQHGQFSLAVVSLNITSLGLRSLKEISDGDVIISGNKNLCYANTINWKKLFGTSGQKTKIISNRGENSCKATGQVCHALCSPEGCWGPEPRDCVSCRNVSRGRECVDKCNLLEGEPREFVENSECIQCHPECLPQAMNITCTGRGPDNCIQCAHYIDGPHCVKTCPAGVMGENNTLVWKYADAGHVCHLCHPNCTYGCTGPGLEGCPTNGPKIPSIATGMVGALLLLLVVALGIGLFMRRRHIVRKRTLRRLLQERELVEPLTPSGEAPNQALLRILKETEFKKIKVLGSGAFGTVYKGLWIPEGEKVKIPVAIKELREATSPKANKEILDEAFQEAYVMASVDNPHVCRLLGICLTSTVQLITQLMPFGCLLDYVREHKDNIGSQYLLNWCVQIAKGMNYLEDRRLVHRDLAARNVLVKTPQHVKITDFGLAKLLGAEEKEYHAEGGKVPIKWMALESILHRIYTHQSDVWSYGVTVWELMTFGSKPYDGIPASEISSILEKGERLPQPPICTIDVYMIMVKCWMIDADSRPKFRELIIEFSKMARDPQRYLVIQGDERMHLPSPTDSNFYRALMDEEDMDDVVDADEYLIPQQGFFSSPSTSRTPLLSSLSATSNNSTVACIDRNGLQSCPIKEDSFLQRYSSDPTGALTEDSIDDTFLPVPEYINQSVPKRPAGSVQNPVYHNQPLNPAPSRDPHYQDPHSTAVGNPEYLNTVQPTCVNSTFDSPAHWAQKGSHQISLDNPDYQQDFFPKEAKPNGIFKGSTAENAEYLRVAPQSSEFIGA
T6 sequence (P00533 with tags, fused parts or gaps INS770NPG): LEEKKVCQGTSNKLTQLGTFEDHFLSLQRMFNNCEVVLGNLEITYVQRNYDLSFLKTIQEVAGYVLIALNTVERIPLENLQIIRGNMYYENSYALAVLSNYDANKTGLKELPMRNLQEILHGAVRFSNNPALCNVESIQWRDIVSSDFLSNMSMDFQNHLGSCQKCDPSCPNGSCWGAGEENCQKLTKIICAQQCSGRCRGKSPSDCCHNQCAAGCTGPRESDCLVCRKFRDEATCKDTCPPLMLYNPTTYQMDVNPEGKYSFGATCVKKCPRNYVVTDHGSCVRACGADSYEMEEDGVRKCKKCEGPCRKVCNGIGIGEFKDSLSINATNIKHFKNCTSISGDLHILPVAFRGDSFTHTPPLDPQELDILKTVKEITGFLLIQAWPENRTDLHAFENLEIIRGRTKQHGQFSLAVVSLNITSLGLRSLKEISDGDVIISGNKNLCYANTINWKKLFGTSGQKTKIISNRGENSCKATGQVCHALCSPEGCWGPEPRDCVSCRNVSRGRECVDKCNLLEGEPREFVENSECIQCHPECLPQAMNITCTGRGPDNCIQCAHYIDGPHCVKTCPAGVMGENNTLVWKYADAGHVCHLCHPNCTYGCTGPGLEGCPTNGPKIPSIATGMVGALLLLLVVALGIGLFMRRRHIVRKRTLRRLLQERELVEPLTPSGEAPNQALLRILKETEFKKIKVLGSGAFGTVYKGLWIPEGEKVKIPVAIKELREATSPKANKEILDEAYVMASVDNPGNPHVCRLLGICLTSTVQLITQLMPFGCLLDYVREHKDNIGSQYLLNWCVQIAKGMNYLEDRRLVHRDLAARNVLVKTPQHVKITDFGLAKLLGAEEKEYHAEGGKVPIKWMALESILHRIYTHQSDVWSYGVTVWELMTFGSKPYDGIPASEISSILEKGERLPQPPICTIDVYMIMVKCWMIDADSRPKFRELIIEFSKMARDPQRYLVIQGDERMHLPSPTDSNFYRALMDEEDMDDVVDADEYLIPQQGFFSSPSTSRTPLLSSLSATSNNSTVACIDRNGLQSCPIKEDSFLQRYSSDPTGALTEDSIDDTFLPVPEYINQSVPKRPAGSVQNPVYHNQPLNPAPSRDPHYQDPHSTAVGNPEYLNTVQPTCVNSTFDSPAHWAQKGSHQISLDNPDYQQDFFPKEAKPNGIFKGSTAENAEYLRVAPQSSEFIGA

IC50 (EGFR WT (Ba/F3 cells)) | IC50 [1] | IC50 [2] | IC50 (EGFR L858R (Ba/F3 cells) [3]) | IC50 [4] | IC50 [5] | IC50 (EGFR L858R (Ba/F3 cells) [6]) | IC50 [7] | IC50 [8] | IC50 [9] | IC50 [10] | Compound
100 to 1000 nM | < 100 nM | < 100 nM | < 100 nM | < 100 nM | < 100 nM | < 100 nM | < 100 nM | < 100 nM | < 100 nM |  | COc1c(F)cccc1Nc1c(-c2ccncn2)[nH]c2c1C(=O)NCC2C[C@H]1COCCO1 (single isomer, unassigned) [Compound 530, (7R*)-7-[(2S)-1,4-dioxan-2-ylmethyl]-3-[(3-fluoro-2-methoxyphenyl)amino]-2-(pyrimidin-4-yl)-1H,5H,6H,7H-pyrrolo[3,2-c]pyridin-4-one]
> 1000 nM | 100 to 1000 nM | < 100 nM | < 100 nM | < 100 nM | < 100 nM | < 100 nM | 100 to 1000 nM | < 100 nM | < 100 nM |  | COc1c(F)cccc1Nc1c(-c2ccncn2)[nH]c2c1C(=O)NCC2C[C@H]1COCCO1 (single isomer, unassigned) [Compound 572, (7R*)-7-[(2S)-1,4-dioxan-2-ylmethyl]-3-[(3-fluoro-2-methoxyphenyl)amino]-2-(pyrimidin-4-yl)-1H,5H,6H,7H-pyrrolo[3,2-c]pyridin-4-one]
100 to 1000 nM | < 100 nM | < 100 nM | < 100 nM | < 100 nM | < 100 nM | < 100 nM | < 100 nM | < 100 nM | < 100 nM |  | COc1c(F)cccc1Nc1c(-c2ccncc2F)[nH]c2c1C(=O)NC[C@H]2CC1COCCO1 (stereo in doubt) [Compound 575, (7R)-7-[(2R)-1,4-dioxan-2-ylmethyl]-3-[(3-fluoro-2-methoxyphenyl)amino]-2-(3-fluoropyridin-4-yl)-1H,5H,6H,7H-pyrrolo[3,2-c]pyridin-4-one]
> 1000 nM | 100 to 1000 nM | < 100 nM | < 100 nM | < 100 nM | < 100 nM | < 100 nM | 100 to 1000 nM | < 100 nM | 100 to 1000 nM |  | COc1c(Cl)cccc1Nc1c(-c2ccncc2F)[nH]c2c1C(=O)NCC21CN(CC(F)F)C1 [Compound 519, 3′-[(3-chloro-2-methoxyphenyl)amino]-1-(2,2-difluoroethyl)-2′-(3-fluoropyridin-4-yl)-5′,6′-dihydro-1′H-spiro[azetidine-3,7′-pyrrolo[3,2-c]pyridin]-4′-one]
> 1000 nM | 100 to 1000 nM | < 100 nM | < 100 nM | < 100 nM | < 100 nM | < 100 nM |  | < 100 nM | 100 to 1000 nM | 100 to 1000 nM | COc1c(Cl)cccc1Nc1c(-c2ccncc2F)[nH]c2c1C(=O)NC[C@H]2CC(F)F [Compound 820, (7R)-3-[(3-chloro-2-methoxyphenyl)amino]-7-(2,2-difluoroethyl)-2-(3-fluoropyridin-4-yl)-1H,5H,6H,7H-pyrrolo[3,2-c]pyridin-4-one]
100 to 1000 nM | < 100 nM | < 100 nM | < 100 nM | < 100 nM | < 100 nM | < 100 nM |  | < 100 nM | < 100 nM | < 100 nM | COc1ncc2nccc(-c3[nH]c4c(c3Nc3cccc(F)c3OC)C(=O)NCC4)c2n1 [compound 409]
100 to 1000 nM | < 100 nM | < 100 nM | < 100 nM | < 100 nM | < 100 nM | < 100 nM |  | < 100 nM | < 100 nM | < 100 nM | COc1c(Cl)cccc1Nc1c(-c2ccnc3ccc(OCC(F)F)nc23)[nH]c2c1C(=O)NCC2 [compound 733, 3-[(3-chloro-2-methoxyphenyl)amino]-2-[6-(2,2-difluoroethoxy)-1,5-naphthyridin-4-yl]-1H,5H,6H,7H-pyrrolo[3,2-c]pyridin-4-one]
> 1000 nM | 100 to 1000 nM | < 100 nM | < 100 nM | < 100 nM | < 100 nM | < 100 nM |  | < 100 nM | < 100 nM | 100 to 1000 nM | COc1c(Cl)cccc1Nc1c(-c2ccncc2F)[nH]c2c1C(=O)NC[C@@]21CCN(CC(F)F)C1 [compound 822]
